These results are taken from patent publication US8207176B2 (Glaxo Group Limited, priority 2005, dated 2012).

Series [1] deals with synthesis of IL-6, IL-8, GM-CSF, RANTES and COX-2. To be noted: a number of different cell types; cited from earlier work.
In series [2] the target is T1, Recombinant human p38α (MKK6-activated) (Homo sapiens, UniProt Q16539).
T1 construct: His; made in house
The series can be described thus: Time-resolved fluorescence resonance energy transfer (TR-FRET) kinase assay (standard or low volume). The series is classed as biochemical. Also on record: key: Compounds are considered active in this assay if they demonstrate a pIC50 of greater than 4.6 up to about a pIC50 of greater than 10.0. To be noted: MKK6-activated p38α 100 pM, GST-ATF2 400 nM, 120 minutes at room temperature; either assay format. Background: Time-resolved FRET reads energy transfer from a long-lived donor to a nearby acceptor.

Series [3] relates to influx of neutrophils to the lung in LPS-challenged rats. The series can be described thus: Rat LPS neutrophilia model. The series is classed as in vivo. To be noted: intratracheal, LPS aerosol 100 ug/ml 15 min, lavage 4 hours later, in at least one of the range of conditions tested, significant p<0.05, nonsignificant p>0.05. A digest of the protocol: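 Compound was given intratracheally (200 ul, suspension or dry powder) 15 min–24 hours before a 15 min aerosol of LPS (100 ug/ml). Bronchoalveolar lavage was taken 4 hours after challenge for differential cell counts. Values are % inhibition of neutrophils versus no-compound controls at a given concentration and pretreat time.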

In series [4] the test system is TGF-β-induced increases in fibronectin and thrombospondin. The conditions noted are these: cited from earlier work.

By melting point is commonly meant the temperature of the solid-liquid transition.

T1 sequence (Q16539 whole entry): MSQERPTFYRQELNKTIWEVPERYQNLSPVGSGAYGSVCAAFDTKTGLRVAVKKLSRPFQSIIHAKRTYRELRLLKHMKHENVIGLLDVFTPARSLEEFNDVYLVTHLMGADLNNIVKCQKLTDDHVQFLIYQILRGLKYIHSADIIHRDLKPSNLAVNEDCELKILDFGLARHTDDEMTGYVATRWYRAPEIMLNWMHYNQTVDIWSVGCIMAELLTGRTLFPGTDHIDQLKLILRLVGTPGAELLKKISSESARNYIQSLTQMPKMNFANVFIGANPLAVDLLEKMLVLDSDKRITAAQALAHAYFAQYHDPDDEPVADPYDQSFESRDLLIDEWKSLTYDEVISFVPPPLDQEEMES

For the compound `Fc1ccc(-c2nc3n(c2-c2ccncc2)CCS3)cc1` [SK&F 86002], the “decreasing the synthesis of pro-inflammatory proteins including IL-6, IL-8, GM-CSF, RANTES and COX-2” value in series [1] was “effective”.

In turn, `Cc1c(F)cc(C(=O)NC2CC2)cc1-c1nc(NC(CO)CO)nc2c1ccc(=O)n2-c1c(F)cccc1F` [18(e)] returned a melting point of 214.2 to 217.5 °C. For the same compound, the “pIC50, reported as active” value in series [2] is “active”.

`CCCNC(=O)c1ccc(C)c(-c2nc(N(C)CCCN(C)C)nc3c2ccc(=O)n3-c2c(F)cccc2F)c1` [Example 104, 3-{8-(2,6-difluorophenyl)-2-[[3-(dimethylamino)propyl](methyl)amino]-7-oxo-7,8-dihydropyrido[2,3-d]pyrimidin-4-yl}-4-methyl-N-propylbenzamide] had a melting point of 104 to 109 °C. Also, in series [3], the “inhibition of neutrophilia (neutrophil levels in lung lavage relative to no compound controls)” value is “statistically significant inhibition”. `C[S+]([O-])c1ccc(-c2nc(-c3ccncc3)c(-c3ccc(F)cc3)[nH]2)cc1` (stereo not shown) [SB-203580]: in series [1], the “decreasing the synthesis of pro-inflammatory proteins including IL-6, IL-8, GM-CSF, RANTES and COX-2” value was “effective”. With `CCCNCCNc1nc(-c2cc(C(=O)NC3CC3)ccc2C)c2ccc(=O)n(-c3c(F)cccc3F)c2n1` [Example 24, N-cyclopropyl-3-(8-(2,6-difluorophenyl)-7-oxo-2-{[2-(propylamino)ethyl]amino}-7,8-dihydropyrido[2,3-d]pyrimidin-4-yl)-4-methylbenzamide], the melting point lay in the range of 120 to 134 °C. Moreover, in series [3], the “inhibition of neutrophilia (neutrophil levels in lung lavage relative to no compound controls)” value is on record as “statistically nonsignificant inhibition”. As for `COc1nccc(-c2c(-c3ccc(F)cc3)ncn2C2CCNCC2)n1` [SB-242235], in series [4], the “effect on TGF-β-induced increases in fibronectin and thrombospondin” value was “inhibited”. With `CCCNC(=O)c1ccc(C)c(-c2nc(NCCN(C)C)nc3c2ccc(=O)n3-c2c(F)cccc2F)c1` [Example 105, 3-(8-(2,6-difluorophenyl)-2-{[2-(dimethylamino)ethyl]amino}-7-oxo-7,8-dihydropyrido[2,3-d]pyrimidin-4-yl)-4-methyl-N-propylbenzamide], the melting point was in the range of 139 to 142 °C. For the same compound, the “inhibition of neutrophilia (neutrophil levels in lung lavage relative to no compound controls)” value in series [3] is reported as “statistically significant inhibition”. In turn, `Cc1ccc(NC(=O)c2ccsc2)cc1-c1nc(N2CCC(N)CC2)nc2c1ccc(=O)n2-c1c(F)cccc1F` [Example 32, N-{3-[2-(4-amino-1-piperidinyl)-8-(2,6-difluorophenyl)-7-oxo-7,8-dihydropyrido[2,3-d]pyrimidin-4-yl]-4-methylphenyl}-3-thiophenecarboxamide] yielded a melting point of 183.8 to 187.9 °C. The “inhibition of neutrophilia (neutrophil levels in lung lavage relative to no compound controls)” value in series [3] was “statistically nonsignificant inhibition”.
